For this data set the following is noted: for mass density: 101.33 kPa, Liquid, Vibrating tube method; for vapor or sublimation pressure: Transpiration method.

± gives the expanded uncertainty stated by the source.

The values below come from the NIST ThermoML archive (doi:10.1016/j.jct.2019.01.006).

In general, mass density refers to the mass of a sample divided by its volume. For the compound `CCCCCC` [hexane], the mass density is on record as 659.4 ± 4.1 kg/m3 (293.15 K); 654.8 ± 4.1 kg/m3 (298.15 K); 650.2 ± 4.1 kg/m3 (303.15 K); 645.4 ± 4.1 kg/m3 (308.15 K); 640.7 ± 4.1 kg/m3 (313.15 K).
Usually vapor or sublimation pressure stands for the equilibrium pressure above the liquid or solid. For `Cc1c(Cl)cccc1Nc1ncccc1C(=O)O` [2-(2-methyl-3-chloroanilino)nicotinic acid], the “vapor or sublimation pressure” value was determined as 0.000753 ± 0.00012 kPa (419.15 K, Crystal); 0.000867 ± 0.00013 kPa (421.15 K, Crystal); 0.000966 ± 0.00013 kPa (423.15 K, Crystal); 0.001118 ± 0.00013 kPa (425.15 K, Crystal); 0.001294 ± 0.00013 kPa (427.15 K, Crystal); 0.001475 ± 0.00013 kPa (429.15 K, Crystal). The “vapor or sublimation pressure” value (431.15 K, Crystal) came to 0.001694 ± 0.00014 kPa; the “vapor or sublimation pressure” value (433.15 K, Crystal) is listed as 0.001933 ± 0.00014 kPa; the “vapor or sublimation pressure” value (435.15 K, Crystal) stood at 0.002207 ± 0.00015 kPa; the “vapor or sublimation pressure” value (437.15 K, Crystal) was found to be 0.002483 ± 0.00016 kPa; the “vapor or sublimation pressure” value (439.15 K, Crystal) is on record as 0.002882 ± 0.00017 kPa; the “vapor or sublimation pressure” value (441.15 K, Crystal) amounted to 0.003179 ± 0.00018 kPa. Also, where the note is “443.15 K, Crystal”, the “vapor or sublimation pressure” value amounted to 0.003735 ± 0.0002 kPa. Besides, for the setting “Crystal, DTA”, the Normal melting temperature was 232.60 ± 0.5 °C.
In the case of `CCCCCCCCO` [octan-1-ol], the mass density runs as follows: (293.15 K) 825.1 ± 4 kg/m3; (298.15 K) 821.7 ± 4 kg/m3; (303.15 K) 818.3 ± 4 kg/m3; (308.15 K) 814.8 ± 4 kg/m3; (313.15 K) 811.4 ± 4 kg/m3.
